Results on 35 molecules are retold here after patent US20240327393A1 (SIRONAX LTD., priority 2021, published 2024).

Where two headings read alike, the source gives them in different places.

In the assay the test system is HT-1080 (ATCC, CCL-121) cells. As to the kind of experiment: HT-1080 cell viability assay with ferroptosis inducer RSL3 (Cell Titer-Glo). Format: cell-based. The following applies: HT-1080 cells treated with RSL3, 3-fold, 10-point dilution, 1.1 μM highest concentration, read-out: EC50 (nM), ferroptosis inhibitory activity. Here is the method: Example 2. Determination of EC50 Values in HT-1080 Cell Viability Assay
HT-1080 (ATCC, CCL-121) cells (6000 in 100 μl) were seeded in 96-well plates (Corning) and cultured in a 37° C. incubator with a humidified atmosphere of 5% CO2 for overnight. Cells were then treated with ferroptosis inducer RSL3 (TargetMol) and a 3-fold, 10-point serial dilution series of compounds with 1.1 μM as the highest concentration, […]. Cell viability was assessed using the Cell Titer-Glo Kit (Promega). The luminescence intensity was measured with a microplate reader (Envision, PerkinElmer), and cell viability was calculated by normalizing the data to untreated controls. The EC50 values of the compounds (e.g., Compounds 1-659) were calculated in GraphPad Prism (GraphPad Software, Inc., San Diego, CA, USA). The curves were fitted using a non-linear regression model with a sigmoidal dose response.
For orientation: Cellular ATP, detected with luciferase, serves as a proxy for viable cell number.

The EC50 is the concentration needed to bring the measured effect to its halfway point.

Turning to `C/N=C1\c2ccc(Nc3ccc(N4CCC(C(F)(F)F)CC4)cc3)cc2CN1C` [Compound 313, 2-methyl-1-(methylimino)-N-(4-(4-(trifluoromethyl)piperidin-1-yl)phenyl)isoindolin-5-amine], the EC50 (Homo sapiens, Table 2) lay within 0.1 to 100 nM.
On the same count and under the same terms, to `Cc1cc(N2CCC(C(F)(F)F)CC2)ccc1Nc1ccc2c(c1)CNC2` [Compound 410, N-(2-methyl-4-(4-(trifluoromethyl)piperidin-1-yl)phenyl) isoindolin-5-amine] belongs 0.1 to 100 nM; to `Cc1cc(Nc2ccc3c(c2)OCC(=O)N3)cnc1N1C[C@@H](C)O[C@@H](C)C1` [Compound 151, 7-((6-(2,6-dimethylmorpholino)-5-methylpyridin-3-yl)amino)-2H-benzo[b][1,4]oxazin-3(4H)-one], 0.1 to 100 nM; to `CC1CCCCN1c1ccc(Nc2ccc3c(c2)n(C)c(=O)n3C)cc1` (centres unmarked) [Compound 368, 1,3-dimethyl-5-((4-(2-methylpiperidin-1-yl)phenyl)amino)-1,3-dihydro-2H-benzo[d]imidazol-2-one], 0.1 to 100 nM.
For `COC(C)(C)C1CCN(c2ccc(Nc3ccc4c(c3)OCC(=O)N4)c(C)c2)CC1` [Compound 559, 7-((4-(4-(2-methoxypropan-2-yl)piperidin-1-yl)-2-methylphenyl)amino)-2H-benzo[b][1,4]oxazin-3(4H)-one], the EC50 (Homo sapiens, Table 3) fell in the range of 0.1 to 100 nM.
`CN(C)c1cc(Nc2ccc3c(=O)n(C)[nH]c3c2)ccc1N1CCCCC1` [Compound 304, 6-((3-(dimethylamino)-4-(piperidin-1-yl)phenyl)amino)-2-methyl-1,2-dihydro-3H-indazol-3-one]: the EC50 (Homo sapiens, Table 2) is 0.1 to 100 nM.
For the molecule `Cc1cc(N2CC(C(F)(F)F)C2)ccc1Nc1ccc2c(c1)OCC(=O)N2` [Compound 583, 7-((2-methyl-4-(3-(trifluoromethyl)azetidin-1-yl)phenyl)amino)-2H-benzo[b][1,4]oxazin-3(4H)-one], the EC50 (Homo sapiens, Table 3) lay within 0.1 to 100 nM.
With `Cc1cc(N2CC(C)OC(C)C2)ccc1Nc1ccc2nn(C)cc2c1` (centres unmarked) [Compound 445, N-(4-(2,6-dimethylmorpholino)-2-methylphenyl)-2-methyl-2H-indazol-5-amine], the EC50 (Homo sapiens, Table 2) lay within 0.1 to 100 nM.
On the same count and under the same terms, the value for `CN1Cc2cc(Nc3ccc(N4CCC(C(F)(F)F)CC4)cc3)cc(F)c2C1=O` [Compound 202, 7-fluoro-2-methyl-5-((4-(4-(trifluoromethyl)piperidin-1-yl)phenyl)amino) isoindolin-1-one] was 0.1 to 100 nM.
For `Cn1oc2cc(Nc3ccc(N4CCC(C(F)(F)F)CC4)cc3)ccc2c1=O` [Compound 187, 2-methyl-6-((4-(4-(trifluoromethyl)piperidin-1-yl)phenyl)amino)benzo[d]isoxazol-3(2H)-one], the EC50 (Homo sapiens, Table 2) is 0.1 to 100 nM.
In the case of `Cc1cc(N2CC(OC(F)(F)F)C2)ccc1Nc1ccc2c(c1)OCC(O)C(=O)N2` (centres unmarked) [Compound 657, 3-hydroxy-8-[2-methyl-4-[3-(trifluoromethoxy)azetidin-1-yl]anilino]-3,5-dihydro-2H-1,5-benzoxazepin-4-one], the EC50 (Homo sapiens, Table 3) lay within 0.1 to 100 nM.
Same read-out and setting: to `Cc1cc(N2CC(OC(F)(F)F)C2)ccc1Nc1ccc2c(c1)OCCC(=O)N2` [Compound 614, 8-((2-methyl-4-(3-(trifluoromethoxy)azetidin-1-yl)phenyl)amino)-2,3-dihydrobenzo[b][1,4]oxazepin-4(5H)-one] belongs 0.1 to 100 nM.
For the molecule `O=C1c2ccc(Nc3ccc(N4CCC(C(F)(F)F)CC4)cc3)cc2CN1C1CC1` [Compound 209, 2-cyclopropyl-5-((4-(4-(trifluoromethyl)piperidin-1-yl)phenyl)amino) isoindolin-1-one], the EC50 (Homo sapiens, Table 2) lay in the range of 0.1 to 100 nM.
In the case of `Cc1cc(N2CC(OC(C)C)C2)ccc1Nc1ccc2c(c1)OCC(=O)N2` [Compound 640, 7-((4-(3-isopropoxyazetidin-1-yl)-2-methylphenyl)amino)-2H-benzo[b][1,4]oxazin-3(4H)-one], the concentration giving a half-maximal response (EC50) (Homo sapiens, Table 3) lay in the range of 0.1 to 100 nM.
Take `CCC1Oc2cc(Nc3ccc(N4CCC(C(F)(F)F)CC4)cc3)ccc2N(C)C1=O` (centres unmarked) [Compound 68, 2-ethyl-4-methyl-7-((4-(4-(trifluoromethyl)piperidin-1-yl)phenyl)amino)-2H-benzo[b][1,4]oxazin-3(4H)-one]: the EC50 (Homo sapiens, Table 2) was 0.1 to 100 nM.
In the case of `CCn1c(=O)oc2ccc(Nc3ccc(N4CCC(C(F)(F)F)CC4)cc3)cc21` [Compound 392, 3-ethyl-5-((4-(4-(trifluoromethyl)piperidin-1-yl)phenyl)amino) benzo[d]oxazol-2(3H)-one], the EC50 (Homo sapiens, Table 2) fell in the range of 0.1 to 100 nM.
Still for that read-out and setting: to `CC1CN(c2ccc(Nc3ccc4c(c3)OCCN4C)cc2)CC(C)O1` (centres unmarked) [Compound 60, N-(4-(2,6-dimethylmorpholino)phenyl)-4-methyl-3,4-dihydro-2H-benzo[b][1,4]oxazin-7-amine] belongs 0.1 to 100 nM.
In the case of `CCN(CC)c1ccc(Nc2ccc3c(c2)OCC(=O)N3)c(C)c1` [Compound 501, 7-((4-(diethylamino)-2-methylphenyl)amino)-2H-benzo[b][1,4]oxazin-3(4H)-one], the EC50 (Homo sapiens, Table 3) was in the range of 0.1 to 100 nM.
Regarding `Cc1cc(N2CCC(C(F)(F)F)CC2)ccc1Nc1ccc2ncc(C(N)=O)n2c1` [Compound 630, 6-((2-methyl-4-(4-(trifluoromethyl)piperidin-1-yl)phenyl)amino) imidazo[1,2-a]pyridine-3-carboxamide], the half-maximal effective concentration (EC50) (Homo sapiens, Table 3) lay within 0.1 to 100 nM.
Consider `Cc1cc(=O)oc2cc(Nc3ccc(C(C)(C)C)cc3)ccc12` [Compound 118, 7-((4-(tert-butyl)phenyl)amino)-4-methyl-2H-chromen-2-one], for which the EC50 (Homo sapiens, Table 2) was in the range of 0.1 to 100 nM.
Regarding `COc1cc(Nc2ccc3c(c2)OCC(=O)N3)ccc1N1CCC(C(F)(F)F)CC1` [Compound 485, 7-((3-methoxy-4-(4-(trifluoromethyl)piperidin-1-yl)phenyl)amino)-2H-benzo[b][1,4]oxazin-3(4H)-one], the EC50 (Homo sapiens, Table 3) fell in the range of 0.1 to 100 nM.
As for `Cn1c(=O)n(C)c2cc(Nc3ccc(N4CCC(C(F)(F)F)CC4)cc3C#N)ccc21` [Compound 374, 2-((1,3-dimethyl-2-oxo-2,3-dihydro-1H-benzo[d]imidazol-5-yl)amino)-5-(4-(trifluoromethyl)piperidin-1-yl)benzonitrile], the EC50 (Homo sapiens, Table 2) lay in the range of 0.1 to 100 nM.
Regarding `Cc1cc(OC(F)F)ccc1Nc1ccc2c(c1)OCC(=O)N2` [Compound 653, 7-[4-(difluoromethoxy)-2-methyl-anilino]-4H-1,4-benzoxazin-3-one], where the note is “Homo sapiens, Table 3”, the EC50 was 0.1 to 100 nM.
On to `COC1(C(F)(F)F)CCN(c2ccc(Nc3ccc4oc(=O)n(C)c4c3)cc2)CC1` [Compound 390, 5-((4-(4-methoxy-4-(trifluoromethyl)piperidin-1-yl)phenyl)amino)-3-methylbenzo[d]oxazol-2(3H)-one], for which the EC50 (Homo sapiens, Table 2) was in the range of 0.1 to 100 nM.
In the case of `CC1CCCCN1c1ccc(Nc2ccc3c(c2)CN(C)C3=O)cc1` (centres unmarked) [Compound 240, 2-methyl-5-((4-(2-methylpiperidin-1-yl)phenyl)amino)isoindolin-1-one], the EC50 (Homo sapiens, Table 2) was in the range of 0.1 to 100 nM.
The same measure, in the same setting: the value for `CN1Cc2cc(Nc3ccc(-c4ccccc4)cc3)ccc2C1=O` [Compound 228, 5-([1,1′-biphenyl]-4-ylamino)-2-methylisoindolin-1-one] was 0.1 to 100 nM; that for `Cn1cnc(N2Cc3cc(Nc4ccc(N5CCC(C(F)(F)F)CC5)cc4)ccc3C2=O)c1` [Compound 206, 2-(1-methyl-1H-imidazol-4-yl)-5-((4-(4-(trifluoromethyl)piperidin-1-yl)phenyl)amino)isoindolin-1-one] was 0.1 to 100 nM; that for `Cc1cc(Nc2ccc3c(c2)OCC(=O)N3C)cc(C)c1N1CCC(C(F)(F)F)CC1` [Compound 155, 7-((3,5-dimethyl-4-(4-(trifluoromethyl)piperidin-1-yl)phenyl)amino)-4-methyl-2H-benzo[b][1,4]oxazin-3(4H)-one] was 0.1 to 100 nM.
The same measure, in the same setting: the value for `CC1(C)CCC(c2ccc(Oc3ccc4nc(N)sc4c3)cc2)CC1` [Compound 408, 6-(4-(4,4-dimethylcyclohexyl)phenoxy)benzo[d]thiazol-2-amine] was 0.1 to 100 nM; that for `CC1CN(c2ccc(Nc3ccc4c(c3)OCC(=O)N4C)c(F)c2)CC(C)O1` (centres unmarked) [Compound 74, 7-((4-(2,6-dimethylmorpholino)-2-fluorophenyl)amino)-4-methyl-2H-benzo[b][1,4]oxazin-3(4H)-one] was 0.1 to 100 nM.
`CN1Cc2cc(Nc3ccc(CN4CCCC4)cc3)ccc2C1=O` [Compound 238, 2-methyl-5-((4-(pyrrolidin-1-ylmethyl)phenyl)amino)isoindolin-1-one]: the EC50 (Homo sapiens, Table 2) was 1000 to 10000 nM.
On the same count and under the same terms, the value for `Cc1cc(Nc2ccc3c(c2)OCC(=O)N3C)cnc1N1CCC(C(F)(F)F)CC1` [Compound 142, 4-methyl-7-((5-methyl-6-(4-(trifluoromethyl)piperidin-1-yl)pyridin-3-yl)amino)-2H-benzo[b][1,4]oxazin-3(4H)-one] was 0.1 to 100 nM.
The same measure, in the same setting: to `CC1CN(c2ccc(Nc3ccc4nnn(C)c4c3)cc2)CC(C)O1` (centres unmarked) [Compound 133, N-(4-(2,6-dimethylmorpholino)phenyl)-1-methyl-1H-benzo[d][1,2,3]triazol-6-amine] belongs 100 to 1000 nM.
For `CC1CN(c2ccc(Nc3ccc4c(c3)nnn4C)cc2)CC(C)O1` (centres unmarked) [Compound 458, N-(4-(2,6-dimethylmorpholino)phenyl)-1-methyl-1H-benzo[d][1,2,3]triazol-5-amine], the EC50 (Table 3) is 0.1 to 100 nM.
For the molecule `Cc1cc(N2CCC(C(F)(F)F)CC2)ccc1Nc1ccc2[nH]cnc2c1` [Compound 567], the EC50 (Homo sapiens, Table 3) is 0.1 to 100 nM.
